Experimental data as given in publication PMC3684959 (Chemistry & biology, 2013).

Columns and labels:
[1] = target: T1, Arp3 (Arp2/3 complex) (Bos taurus, UniProt P61157); experiment: X-ray co-crystal structure, […] Å, with CK-869 also bound; format: binding
[2] = target: T1, Arp3 (Arp2/3 complex); experiment: fluorescence titration of BtArp2/[…] complex with ε-ATP; format: binding

Row | Kd [2] [µM] | SMILES | X-ray co-crystal structure, 2.5 Å, with CK-869 also bound [1]
1 | – | Nc1ncnc2c1ncn2[C@@H]1O[C@H](COP(=O)(O)OP(=O)(O)OP(=O)(O)O)[C@@H](O)[C@H]1O [ATP] | show strong density for both ATP and CK-869 bound to Arp3 subunit
2 | 3 ± 0.4 | O=P(O)(O)OP(=O)(O)OP(=O)(O)OC[C@H]1O[C@@H](n2cnc3c2ncn2ccnc32)[C@H](O)[C@@H]1O [ε-ATP] | –
